Broadly, the pEC50 is −log10 of the EC50, conventionally taken in molar units. Higher therefore signals a small EC50. In general, pIC50 refers to the IC50 on a negative log10 scale, so that one unit is a factor of ten.

pEC50, pIC50: −log10 of the molar value.

This assay concerns the target T1, Glucocorticoid receptor (Homo sapiens, UniProt P04150).
T1 sequence (P04150 whole entry): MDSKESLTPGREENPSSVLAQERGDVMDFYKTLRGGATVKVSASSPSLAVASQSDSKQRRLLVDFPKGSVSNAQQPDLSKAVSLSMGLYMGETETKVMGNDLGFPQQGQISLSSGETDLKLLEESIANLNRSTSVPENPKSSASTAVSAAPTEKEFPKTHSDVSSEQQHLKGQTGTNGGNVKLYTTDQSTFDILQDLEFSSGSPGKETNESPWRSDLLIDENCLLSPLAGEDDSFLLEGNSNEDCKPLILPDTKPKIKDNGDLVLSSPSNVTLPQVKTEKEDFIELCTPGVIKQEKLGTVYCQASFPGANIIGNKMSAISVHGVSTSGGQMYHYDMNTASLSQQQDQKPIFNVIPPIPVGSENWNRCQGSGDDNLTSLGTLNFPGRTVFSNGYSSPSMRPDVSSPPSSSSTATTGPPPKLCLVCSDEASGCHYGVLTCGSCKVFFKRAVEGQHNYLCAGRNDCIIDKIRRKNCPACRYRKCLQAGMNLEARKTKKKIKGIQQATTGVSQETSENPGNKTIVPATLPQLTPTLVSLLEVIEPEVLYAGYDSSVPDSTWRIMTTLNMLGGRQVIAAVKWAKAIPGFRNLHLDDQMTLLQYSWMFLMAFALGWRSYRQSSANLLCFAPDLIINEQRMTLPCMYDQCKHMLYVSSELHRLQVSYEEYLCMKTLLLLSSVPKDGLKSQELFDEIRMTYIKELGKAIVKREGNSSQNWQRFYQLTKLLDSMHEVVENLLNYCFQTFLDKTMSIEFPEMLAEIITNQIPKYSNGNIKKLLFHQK
The assay can be described thus: GR-Mediated Antagonist Activity Assay and IL-6 Repression Assay. The conditions noted are these: pH 7.5. The method, then:
Potencies of compounds are reported as the concentration at which they reach half their antagonist (IC50) activity. IL-6 Repression Assay- The GR-mediated repression of IL-6 production in a human fibroblast (NHDFneo) cell line is measured with a modified ELISA assay.
`COc1c(O)ccc2c1-c1ccc3c(c1/C(=C/c1sccc1[C@@H](O)C(F)(F)F)O2)C(C)=CC(C)(C)N3` [(18Z)-12-methoxy-3,5,5-trimethyl-18-({3-[(1R)-2,2,2-trifluoro-1-hydroxyethyl]thiophen-2-yl}methylidene)-17-oxa-6-azatetracyclo[8.8.0.0^{2,7}.0^{11,16}]octadeca-1(10),2(7),3,8,11,13,15-heptaen-13-ol] showed a pEC50 of 8.85 and a pIC50 of 9.22.
Consider `COc1c(O)ccc2c1-c1ccc3c(c1/C(=C/c1sccc1[C@H](O)C(F)(F)F)O2)C(C)=CC(C)(C)N3` [(18Z)-12-methoxy-3,5,5-trimethyl-18-({3-[(1S)-2,2,2-trifluoro-1-hydroxyethyl]thiophen-2-yl}methylidene)-17-oxa-6-azatetracyclo[8.8.0.0^{2,7}.0^{11,16}]octadeca-1(10),2(7),3,8,11,13,15-heptaen-13-ol], for which the pEC50 is 9.70 and the pIC50 is 9.70.
Regarding `CCCCC(O)c1ccsc1/C=C1\Oc2ccc(O)c(OC)c2-c2ccc3c(c21)C(C)=CC(C)(C)N3` (stereo unspecified) [(18Z)-18-{[3-(1-hydroxypentyl)thiophen-2-yl]methylidene}-12-methoxy-3,5,5-trimethyl-17-oxa-6-azatetracyclo[8.8.0.0^{2,7}.0^{11,16}]octadeca-1(10),2(7),3,8,11,13,15-heptaen-13-ol], the pIC50 was 9.05.
The same measure, in the same setting: the value for `COc1c(O)ccc2c1-c1ccc3c(c1C(=Cc1sccc1C(=O)C1CCCCC1)O2)C(C)=CC(C)(C)N3` [(18Z)-18-[(3-cyclohexanecarbonylthiophen-2-yl)methylidene]-12-methoxy-3,5,5-trimethyl-17-oxa-6-azatetracyclo[8.8.0.0^{2,7}.0^{11,16}]octadeca-1(10),2(7),3,8,11,13,15-heptaen-13-ol] was 9.00.

The values are drawn from BindingDB's records for doi:10.1021/jm070370z (Ligand Pharmaceuticals, 2007).
